Test results published in publication doi:10.1101/2023.03.24.534094v2 (biorxiv, 2023).
Like-named read-outs stand apart in the source and are kept apart here. Each block holds one compound with its values, some of them ahead of it.

Columns and labels:
Assay in all cases: biochemical
SRPK1 = SRPK1 (Homo sapiens, UniProt Q96SB4)
BMPR2 = biological target: T1, BMPR2 (Homo sapiens, UniProt Q13873)
T1 sequence (Q13873 1-1038): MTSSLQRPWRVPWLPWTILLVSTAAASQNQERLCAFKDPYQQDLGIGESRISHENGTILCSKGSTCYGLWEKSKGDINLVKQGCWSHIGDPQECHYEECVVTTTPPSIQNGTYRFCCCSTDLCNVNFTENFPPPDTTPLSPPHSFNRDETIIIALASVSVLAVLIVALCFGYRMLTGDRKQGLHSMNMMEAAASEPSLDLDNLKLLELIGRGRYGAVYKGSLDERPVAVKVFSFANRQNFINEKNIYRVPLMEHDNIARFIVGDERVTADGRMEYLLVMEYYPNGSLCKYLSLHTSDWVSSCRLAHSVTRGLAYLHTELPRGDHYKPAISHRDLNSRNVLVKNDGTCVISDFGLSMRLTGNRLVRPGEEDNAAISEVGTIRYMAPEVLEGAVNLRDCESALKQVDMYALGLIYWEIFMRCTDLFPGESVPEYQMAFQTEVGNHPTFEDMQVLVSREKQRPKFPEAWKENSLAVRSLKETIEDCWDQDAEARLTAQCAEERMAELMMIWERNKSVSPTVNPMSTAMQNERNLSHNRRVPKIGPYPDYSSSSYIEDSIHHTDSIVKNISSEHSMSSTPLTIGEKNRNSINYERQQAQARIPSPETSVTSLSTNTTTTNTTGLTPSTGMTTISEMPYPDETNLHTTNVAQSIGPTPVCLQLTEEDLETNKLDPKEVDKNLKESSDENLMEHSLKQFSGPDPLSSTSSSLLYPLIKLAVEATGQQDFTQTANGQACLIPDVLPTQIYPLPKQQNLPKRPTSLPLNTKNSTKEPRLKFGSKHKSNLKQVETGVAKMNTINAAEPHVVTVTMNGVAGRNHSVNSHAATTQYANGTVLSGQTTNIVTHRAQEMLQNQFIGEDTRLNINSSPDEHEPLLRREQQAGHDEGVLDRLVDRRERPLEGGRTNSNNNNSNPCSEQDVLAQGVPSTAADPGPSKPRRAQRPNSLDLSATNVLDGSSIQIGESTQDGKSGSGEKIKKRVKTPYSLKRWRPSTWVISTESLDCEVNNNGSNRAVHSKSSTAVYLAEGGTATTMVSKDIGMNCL

CaMK1g = CaMK1g (Homo sapiens, UniProt Q96NX5)
CaMK1g, sequence (Q96NX5 whole entry): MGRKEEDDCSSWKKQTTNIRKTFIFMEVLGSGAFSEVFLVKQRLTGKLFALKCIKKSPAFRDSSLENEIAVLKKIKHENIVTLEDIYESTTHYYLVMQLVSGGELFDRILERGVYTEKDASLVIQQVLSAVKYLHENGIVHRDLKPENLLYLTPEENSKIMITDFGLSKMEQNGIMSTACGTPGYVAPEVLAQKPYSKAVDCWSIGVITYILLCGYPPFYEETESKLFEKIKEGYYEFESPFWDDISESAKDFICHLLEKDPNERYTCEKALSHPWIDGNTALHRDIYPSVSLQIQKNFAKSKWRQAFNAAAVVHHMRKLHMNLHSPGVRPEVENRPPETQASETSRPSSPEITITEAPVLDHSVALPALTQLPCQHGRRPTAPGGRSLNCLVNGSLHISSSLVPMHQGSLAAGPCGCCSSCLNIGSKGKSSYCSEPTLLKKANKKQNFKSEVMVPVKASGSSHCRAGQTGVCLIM

PIM1 = PIM1 (Homo sapiens, UniProt P11309)
PIM1, sequence (P11309 whole entry): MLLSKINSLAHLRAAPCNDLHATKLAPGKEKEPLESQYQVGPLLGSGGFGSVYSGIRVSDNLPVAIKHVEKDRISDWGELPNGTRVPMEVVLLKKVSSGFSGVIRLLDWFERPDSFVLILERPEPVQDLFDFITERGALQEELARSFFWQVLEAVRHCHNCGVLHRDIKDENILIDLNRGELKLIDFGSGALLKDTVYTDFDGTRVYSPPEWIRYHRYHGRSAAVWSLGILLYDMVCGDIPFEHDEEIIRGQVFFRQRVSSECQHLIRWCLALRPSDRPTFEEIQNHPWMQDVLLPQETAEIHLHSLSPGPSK

MYT1 = biological target: T2, MYT1 (Homo sapiens, UniProt Q99640)
T2 sequence (Q99640 1-499): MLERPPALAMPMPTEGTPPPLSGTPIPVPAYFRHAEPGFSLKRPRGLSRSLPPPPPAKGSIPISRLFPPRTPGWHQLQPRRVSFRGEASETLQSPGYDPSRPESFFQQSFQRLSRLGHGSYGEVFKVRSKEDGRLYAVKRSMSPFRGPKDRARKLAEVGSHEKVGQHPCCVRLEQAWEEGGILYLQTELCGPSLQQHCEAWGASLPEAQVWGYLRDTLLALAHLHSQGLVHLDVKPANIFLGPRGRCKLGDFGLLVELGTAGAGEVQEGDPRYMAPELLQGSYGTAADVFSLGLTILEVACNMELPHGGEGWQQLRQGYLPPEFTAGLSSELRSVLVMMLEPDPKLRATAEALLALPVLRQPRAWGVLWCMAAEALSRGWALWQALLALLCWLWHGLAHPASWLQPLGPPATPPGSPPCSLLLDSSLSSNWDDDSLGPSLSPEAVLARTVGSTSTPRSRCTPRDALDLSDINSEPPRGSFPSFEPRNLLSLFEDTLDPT

DAPK1 = DAPK1 (Homo sapiens, UniProt P53355)
DAPK1, sequence (P53355 whole entry): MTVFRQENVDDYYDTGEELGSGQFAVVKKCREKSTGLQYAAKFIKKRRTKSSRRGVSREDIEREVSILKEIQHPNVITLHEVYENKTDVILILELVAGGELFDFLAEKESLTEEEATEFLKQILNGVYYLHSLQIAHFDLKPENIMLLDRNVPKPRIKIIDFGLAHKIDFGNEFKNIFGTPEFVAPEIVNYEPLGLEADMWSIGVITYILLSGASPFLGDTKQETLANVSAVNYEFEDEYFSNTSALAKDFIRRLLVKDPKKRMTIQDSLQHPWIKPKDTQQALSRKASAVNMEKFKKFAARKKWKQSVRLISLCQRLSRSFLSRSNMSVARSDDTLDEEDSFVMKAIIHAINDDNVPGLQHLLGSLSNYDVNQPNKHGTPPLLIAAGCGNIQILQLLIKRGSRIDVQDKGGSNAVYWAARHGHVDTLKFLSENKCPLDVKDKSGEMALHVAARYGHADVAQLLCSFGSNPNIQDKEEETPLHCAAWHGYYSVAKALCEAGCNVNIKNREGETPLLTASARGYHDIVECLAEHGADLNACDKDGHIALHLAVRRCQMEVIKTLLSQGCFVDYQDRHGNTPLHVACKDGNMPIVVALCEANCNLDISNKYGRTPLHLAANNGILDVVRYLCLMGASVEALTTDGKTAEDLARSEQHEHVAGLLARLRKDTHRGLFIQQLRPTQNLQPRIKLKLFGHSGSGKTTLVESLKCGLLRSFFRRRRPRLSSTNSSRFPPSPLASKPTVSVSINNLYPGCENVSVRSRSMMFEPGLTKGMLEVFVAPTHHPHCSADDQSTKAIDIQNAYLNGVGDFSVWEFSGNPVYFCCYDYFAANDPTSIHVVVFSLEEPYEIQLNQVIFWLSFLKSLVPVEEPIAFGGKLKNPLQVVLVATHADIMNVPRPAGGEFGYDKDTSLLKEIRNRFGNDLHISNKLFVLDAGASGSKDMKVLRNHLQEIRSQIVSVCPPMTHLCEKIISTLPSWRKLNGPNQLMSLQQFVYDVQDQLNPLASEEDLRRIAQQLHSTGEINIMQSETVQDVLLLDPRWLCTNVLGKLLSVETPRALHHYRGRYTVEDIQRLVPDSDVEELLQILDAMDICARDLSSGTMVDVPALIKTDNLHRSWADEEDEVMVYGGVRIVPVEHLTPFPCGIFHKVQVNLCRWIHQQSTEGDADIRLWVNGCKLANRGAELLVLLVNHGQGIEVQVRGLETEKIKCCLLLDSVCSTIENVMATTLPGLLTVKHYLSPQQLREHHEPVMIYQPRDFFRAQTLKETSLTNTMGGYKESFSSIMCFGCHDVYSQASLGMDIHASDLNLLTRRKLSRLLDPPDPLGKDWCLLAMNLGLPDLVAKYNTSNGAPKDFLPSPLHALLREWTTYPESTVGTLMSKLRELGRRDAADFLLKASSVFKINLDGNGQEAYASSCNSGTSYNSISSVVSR

TTK = biological target: T3, TTK (Homo sapiens, UniProt P33981)
T3 sequence (P33981 1-857): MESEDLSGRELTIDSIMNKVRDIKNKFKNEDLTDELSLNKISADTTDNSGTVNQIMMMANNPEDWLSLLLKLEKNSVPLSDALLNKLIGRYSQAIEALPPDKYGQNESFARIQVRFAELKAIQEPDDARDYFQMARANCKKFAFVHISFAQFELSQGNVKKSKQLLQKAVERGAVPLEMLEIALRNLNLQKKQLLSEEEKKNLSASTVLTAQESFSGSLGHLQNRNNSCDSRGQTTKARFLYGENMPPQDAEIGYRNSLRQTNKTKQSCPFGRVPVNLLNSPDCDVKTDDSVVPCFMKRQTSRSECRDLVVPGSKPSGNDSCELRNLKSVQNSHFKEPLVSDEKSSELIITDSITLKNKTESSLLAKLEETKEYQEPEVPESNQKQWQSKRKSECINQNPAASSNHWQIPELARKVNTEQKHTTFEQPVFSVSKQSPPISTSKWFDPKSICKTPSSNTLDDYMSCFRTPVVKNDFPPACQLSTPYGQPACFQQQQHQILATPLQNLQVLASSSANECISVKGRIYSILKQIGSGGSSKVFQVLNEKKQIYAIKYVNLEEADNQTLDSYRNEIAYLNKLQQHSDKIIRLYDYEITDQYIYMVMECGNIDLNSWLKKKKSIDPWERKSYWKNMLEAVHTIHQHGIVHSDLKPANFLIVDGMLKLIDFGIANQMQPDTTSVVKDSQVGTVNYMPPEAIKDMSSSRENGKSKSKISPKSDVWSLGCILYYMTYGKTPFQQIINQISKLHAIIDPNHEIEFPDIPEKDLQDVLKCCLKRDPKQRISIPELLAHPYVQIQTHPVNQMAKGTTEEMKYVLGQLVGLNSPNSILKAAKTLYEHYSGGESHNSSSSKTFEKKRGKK

CaMK1d = CaMK1d (Homo sapiens, UniProt Q8IU85)
CaMK1d, sequence (Q8IU85 whole entry): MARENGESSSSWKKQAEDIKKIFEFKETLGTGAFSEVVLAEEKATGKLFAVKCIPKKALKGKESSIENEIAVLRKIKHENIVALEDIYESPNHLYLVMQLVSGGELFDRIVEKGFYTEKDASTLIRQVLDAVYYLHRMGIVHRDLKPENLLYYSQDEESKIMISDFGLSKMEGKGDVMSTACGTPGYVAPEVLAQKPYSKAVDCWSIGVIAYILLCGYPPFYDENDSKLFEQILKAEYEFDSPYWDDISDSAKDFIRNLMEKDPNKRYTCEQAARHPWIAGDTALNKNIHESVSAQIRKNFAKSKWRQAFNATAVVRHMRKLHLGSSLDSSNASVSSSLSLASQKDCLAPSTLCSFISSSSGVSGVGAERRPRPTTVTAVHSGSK

NDR2 = NDR2 (Homo sapiens, UniProt Q9Y2H1)
NDR2, sequence (Q9Y2H1 whole entry): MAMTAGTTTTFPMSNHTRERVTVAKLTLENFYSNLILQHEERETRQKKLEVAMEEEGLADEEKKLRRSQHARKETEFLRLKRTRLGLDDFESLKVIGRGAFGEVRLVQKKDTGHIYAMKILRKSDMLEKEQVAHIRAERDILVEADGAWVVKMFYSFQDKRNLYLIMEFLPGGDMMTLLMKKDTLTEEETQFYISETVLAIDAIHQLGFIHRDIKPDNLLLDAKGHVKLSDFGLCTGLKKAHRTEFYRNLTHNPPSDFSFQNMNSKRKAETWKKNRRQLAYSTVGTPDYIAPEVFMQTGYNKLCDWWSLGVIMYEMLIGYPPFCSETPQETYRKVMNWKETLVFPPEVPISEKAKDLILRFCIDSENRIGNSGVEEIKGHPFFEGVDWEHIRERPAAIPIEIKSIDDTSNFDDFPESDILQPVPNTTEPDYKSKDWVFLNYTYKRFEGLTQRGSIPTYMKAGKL

SRPK1, sequence (Q96SB4 whole entry): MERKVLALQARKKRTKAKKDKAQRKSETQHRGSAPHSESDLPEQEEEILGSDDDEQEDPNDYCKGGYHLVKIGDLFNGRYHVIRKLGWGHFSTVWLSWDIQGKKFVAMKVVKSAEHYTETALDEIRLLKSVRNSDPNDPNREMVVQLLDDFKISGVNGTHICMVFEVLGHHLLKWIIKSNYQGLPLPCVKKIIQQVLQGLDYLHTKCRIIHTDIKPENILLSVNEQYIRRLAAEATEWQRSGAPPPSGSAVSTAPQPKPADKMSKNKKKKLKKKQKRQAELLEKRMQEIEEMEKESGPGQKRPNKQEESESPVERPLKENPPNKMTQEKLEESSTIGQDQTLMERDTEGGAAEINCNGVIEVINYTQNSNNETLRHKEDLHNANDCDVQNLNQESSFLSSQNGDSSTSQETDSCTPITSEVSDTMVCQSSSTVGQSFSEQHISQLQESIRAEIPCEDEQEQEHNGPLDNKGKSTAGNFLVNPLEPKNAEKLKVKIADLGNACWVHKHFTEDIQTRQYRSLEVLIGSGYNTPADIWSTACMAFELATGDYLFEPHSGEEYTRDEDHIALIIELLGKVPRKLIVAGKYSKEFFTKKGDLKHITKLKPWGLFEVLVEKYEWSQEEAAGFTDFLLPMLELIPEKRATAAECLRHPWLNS

Compound: CNc1ncc2cc(-c3cc(Cl)ccc3Cl)c(=O)n(CCCCN)c2n1 [compound 8, 8-(4-Aminobutyl)-6-(2,5-dichlorophenyl)-2-(methylamino)pyrido[2,3-d]pyrimidin-7(8H)-one]
ΔTm at 10 µM (SRPK1; read-out: dTm 8): 0.3 °C | ΔTm at 10 µM (BMPR2; read-out: dTm 8): 0.2 °C | ΔTm at 10 µM (CaMK1g; read-out: dTm 8): 1.1 °C | ΔTm at 10 µM (PIM1; read-out: dTm 8): 0.8 °C | ΔTm at 10 µM (MYT1; read-out: dTm 8): 0.3 °C | ΔTm at 10 µM (DAPK1; read-out: dTm 8): 0.1 °C | ΔTm at 10 µM (TTK; read-out: dTm 8): 0.5 °C | ΔTm at 10 µM (CaMK1d; read-out: dTm 8): 2.4 °C | ΔTm at 10 µM (NDR2; read-out: dTm 8): 0.4 °C

Compound: CNc1ncc2cc(-c3cc(F)c(-c4cccc(C)n4)cc3F)c(=O)n(CCCCN)c2n1 [compound 12, 8-(4-Aminobutyl)-6-(2,5-difluoro-4-(6-methylpyridin-2-yl)phenyl)-2-(methylamino)pyrido[2,3-d]pyrimidin-7(8H)-one]
ΔTm at 10 µM (SRPK1; read-out: dTm 12): 0 °C | ΔTm at 10 µM (BMPR2; read-out: dTm 12): -0.2 °C | ΔTm at 10 µM (CaMK1g; read-out: dTm 12): 3.4 °C | ΔTm at 10 µM (PIM1; read-out: dTm 12): 0.8 °C | ΔTm at 10 µM (MYT1; read-out: dTm 12): -1.8 °C | ΔTm at 10 µM (DAPK1; read-out: dTm 12): -0.9 °C | ΔTm at 10 µM (TTK; read-out: dTm 12): -0.7 °C | ΔTm at 10 µM (CaMK1d; read-out: dTm 12): 3.1 °C | ΔTm at 10 µM (NDR2; read-out: dTm 12): 5.2 °C

More lines, now with the values ahead:

ΔTm at 10 µM (SRPK1; read-out: dTm 11): 0.2 °C | ΔTm at 10 µM (BMPR2; read-out: dTm 11): 0 °C | ΔTm at 10 µM (CaMK1g; read-out: dTm 11): 0.8 °C | ΔTm at 10 µM (PIM1; read-out: dTm 11): 0.6 °C | ΔTm at 10 µM (MYT1; read-out: dTm 11): -0.4 °C | ΔTm at 10 µM (DAPK1; read-out: dTm 11): 0.2 °C | ΔTm at 10 µM (TTK; read-out: dTm 11): 0.2 °C | ΔTm at 10 µM (CaMK1d; read-out: dTm 11): 2.3 °C | ΔTm at 10 µM (NDR2; read-out: dTm 11): 0.5 °C
Compound: CNc1ncc2cc(-c3cc(Br)ccc3Br)c(=O)n(CCCCN)c2n1 [compound 11, 8-(4-Aminobutyl)-6-(2,5-dibromophenyl)-2-(methylamino)pyrido[2,3-d]pyrimidin-7(8H)-one]

ΔTm at 10 µM (SRPK1; read-out: dTm 9): 0.1 °C | ΔTm at 10 µM (BMPR2; read-out: dTm 9): 0.1 °C | ΔTm at 10 µM (CaMK1g; read-out: dTm 9): 0.6 °C | ΔTm at 10 µM (PIM1; read-out: dTm 9): 0.6 °C | ΔTm at 10 µM (MYT1; read-out: dTm 9): -0.2 °C | ΔTm at 10 µM (DAPK1; read-out: dTm 9): 0.1 °C | ΔTm at 10 µM (TTK; read-out: dTm 9): -0.5 °C | ΔTm at 10 µM (CaMK1d; read-out: dTm 9): 2.3 °C | ΔTm at 10 µM (NDR2; read-out: dTm 9): 0.1 °C
Compound: CNc1ncc2cc(-c3cc(C(F)(F)F)ccc3Cl)c(=O)n(CCCCN)c2n1 [compound 9, 8-(4-Aminobutyl)-6-(2-chloro-5-(trifluoromethyl)phenyl)-2-(methylamino)pyrido[2,3-d]pyrimidin-7(8H)-one]

ΔTm at 10 µM (SRPK1; read-out: dTm 10): 0.2 °C | ΔTm at 10 µM (BMPR2; read-out: dTm 10): 0 °C | ΔTm at 10 µM (CaMK1g; read-out: dTm 10): 0.7 °C | ΔTm at 10 µM (PIM1; read-out: dTm 10): 0.8 °C | ΔTm at 10 µM (MYT1; read-out: dTm 10): 0.6 °C | ΔTm at 10 µM (DAPK1; read-out: dTm 10): 0.1 °C | ΔTm at 10 µM (TTK; read-out: dTm 10): 0.5 °C | ΔTm at 10 µM (CaMK1d; read-out: dTm 10): 2 °C | ΔTm at 10 µM (NDR2; read-out: dTm 10): 0.4 °C
Compound: CNc1ncc2cc(-c3cc(Cl)ccc3Br)c(=O)n(CCCCN)c2n1 [compound 10, 8-(4-Aminobutyl)-6-(2-bromo-5-chlorophenyl)-2-(methylamino)pyrido[2,3-d]pyrimidin-7(8H)-one]
